{"source": "ChEMBL document CHEMBL4219074", "about": "“Borrelidins F-I, cytotoxic and cell migration inhibiting agents from mangrove-derived Streptomyces rochei SCSIO ZJ89” (Bioorg Med Chem, 2018)", "note": "Activity calls are given as the source filed them. The calls are words filed in the database; no cut-off is given here."}
{"tested_on": "A549", "assay": "Cytotoxicity against human A549 cells by CCK8 assay", "assay_type": "functional, cell-based", "settings": "not given", "units": {"IC50": "µM"}}
{"smiles": "CC(=O)NC/C1=C/C=C/C[C@H]([C@@H]2CCC[C@H]2C(=O)O)OC(=O)C[C@H](O)[C@@H](C)C[C@@H](C)C[C@@H](C)C[C@H](C)[C@@H]1O", "IC50": "> 50"}
{"smiles": "COc1cccc2c1C(=O)c1c(O)c3c(c(O)c1C2=O)C[C@@](O)(C(=O)CO)C[C@@H]3O[C@H]1C[C@H](N)[C@H](O)[C@H](C)O1", "note": "[DOXORUBICIN]", "IC50": 3.41}
{"smiles": "C[C@@H]1C[C@H](C)C[C@H](C)[C@@H](O)CC(=O)O[C@@H]([C@@H]2CCC[C@H]2C(=O)O)C/C=C\\C=C(/C#N)[C@@H](O)[C@@H](C)C1", "IC50": 1.22}
{"smiles": "C[C@@H]1C[C@H](C)C[C@H](C)[C@@H](O)CC(=O)O[C@@H]([C@@H]2CCC[C@H]2C(=O)O)C/C=C/C=C(/C#N)[C@@H](O)[C@@H](C)C1", "IC50": 9.2}
{"smiles": "C[C@@H]1C[C@H](C)C[C@H](C)[C@@H](O)CC(=O)O[C@@H]([C@@H]2CCC[C@H]2C(=O)O)C/C=C\\C=C(/C#N)[C@H](O)[C@@H](C)C1", "IC50": 15.2}
{"smiles": "C[C@@H]1C[C@H](C)C[C@H](C)[C@@H](O)CC(=O)O[C@@H]([C@@H]2CCC[C@H]2C(=O)O)C/C=C/C=C(/C#N)[C@H](O)[C@@H](C)C1", "IC50": 1.69}
{"tested_on": "CNE-2", "assay": "Cytotoxicity against human CNE2 cells by CCK8 assay", "assay_type": "functional, cell-based", "settings": "not given", "units": {"IC50": "µM"}}
{"smiles": "CC(=O)NC/C1=C/C=C/C[C@H]([C@@H]2CCC[C@H]2C(=O)O)OC(=O)C[C@H](O)[C@@H](C)C[C@@H](C)C[C@@H](C)C[C@H](C)[C@@H]1O", "IC50": "> 50"}
{"smiles": "COc1cccc2c1C(=O)c1c(O)c3c(c(O)c1C2=O)C[C@@](O)(C(=O)CO)C[C@@H]3O[C@H]1C[C@H](N)[C@H](O)[C@H](C)O1", "note": "[DOXORUBICIN]", "IC50": 3.52}
{"smiles": "C[C@@H]1C[C@H](C)C[C@H](C)[C@@H](O)CC(=O)O[C@@H]([C@@H]2CCC[C@H]2C(=O)O)C/C=C\\C=C(/C#N)[C@@H](O)[C@@H](C)C1", "IC50": 1.27}
{"smiles": "C[C@@H]1C[C@H](C)C[C@H](C)[C@@H](O)CC(=O)O[C@@H]([C@@H]2CCC[C@H]2C(=O)O)C/C=C/C=C(/C#N)[C@@H](O)[C@@H](C)C1", "IC50": 9.35}
{"smiles": "C[C@@H]1C[C@H](C)C[C@H](C)[C@@H](O)CC(=O)O[C@@H]([C@@H]2CCC[C@H]2C(=O)O)C/C=C\\C=C(/C#N)[C@H](O)[C@@H](C)C1", "IC50": 14.4}
{"smiles": "C[C@@H]1C[C@H](C)C[C@H](C)[C@@H](O)CC(=O)O[C@@H]([C@@H]2CCC[C@H]2C(=O)O)C/C=C/C=C(/C#N)[C@H](O)[C@@H](C)C1", "IC50": 1.55}
{"tested_on": "HeLa", "assay": "Cytotoxicity against human HeLa cells by CCK8 assay", "assay_type": "functional, cell-based", "settings": "not given", "units": {"IC50": "µM"}}
{"smiles": "CC(=O)NC/C1=C/C=C/C[C@H]([C@@H]2CCC[C@H]2C(=O)O)OC(=O)C[C@H](O)[C@@H](C)C[C@@H](C)C[C@@H](C)C[C@H](C)[C@@H]1O", "IC50": "> 50"}
{"smiles": "C[C@@H]1C[C@H](C)C[C@H](C)[C@@H](O)CC(=O)O[C@@H]([C@@H]2CCC[C@H]2C(=O)O)C/C=C\\C=C(/C#N)[C@@H](O)[C@@H](C)C1", "IC50": 1.28}
{"smiles": "C[C@@H]1C[C@H](C)C[C@H](C)[C@@H](O)CC(=O)O[C@@H]([C@@H]2CCC[C@H]2C(=O)O)C/C=C/C=C(/C#N)[C@@H](O)[C@@H](C)C1", "IC50": 11.6}
{"smiles": "C[C@@H]1C[C@H](C)C[C@H](C)[C@@H](O)CC(=O)O[C@@H]([C@@H]2CCC[C@H]2C(=O)O)C/C=C\\C=C(/C#N)[C@H](O)[C@@H](C)C1", "IC50": 15.1}
{"smiles": "C[C@@H]1C[C@H](C)C[C@H](C)[C@@H](O)CC(=O)O[C@@H]([C@@H]2CCC[C@H]2C(=O)O)C/C=C/C=C(/C#N)[C@H](O)[C@@H](C)C1", "IC50": 2.19}
{"tested_on": "HepG2", "assay": "Cytotoxicity against human HepG2 cells by CCK8 assay", "assay_type": "functional, cell-based", "settings": "not given", "units": {"IC50": "µM"}}
{"smiles": "CC(=O)NC/C1=C/C=C/C[C@H]([C@@H]2CCC[C@H]2C(=O)O)OC(=O)C[C@H](O)[C@@H](C)C[C@@H](C)C[C@@H](C)C[C@H](C)[C@@H]1O", "IC50": "> 50"}
{"smiles": "COc1cccc2c1C(=O)c1c(O)c3c(c(O)c1C2=O)C[C@@](O)(C(=O)CO)C[C@@H]3O[C@H]1C[C@H](N)[C@H](O)[C@H](C)O1", "note": "[DOXORUBICIN]", "IC50": 1.13}
{"smiles": "C[C@@H]1C[C@H](C)C[C@H](C)[C@@H](O)CC(=O)O[C@@H]([C@@H]2CCC[C@H]2C(=O)O)C/C=C\\C=C(/C#N)[C@@H](O)[C@@H](C)C1", "IC50": 2.05}
{"smiles": "C[C@@H]1C[C@H](C)C[C@H](C)[C@@H](O)CC(=O)O[C@@H]([C@@H]2CCC[C@H]2C(=O)O)C/C=C/C=C(/C#N)[C@@H](O)[C@@H](C)C1", "IC50": 14.6}
{"smiles": "C[C@@H]1C[C@H](C)C[C@H](C)[C@@H](O)CC(=O)O[C@@H]([C@@H]2CCC[C@H]2C(=O)O)C/C=C\\C=C(/C#N)[C@H](O)[C@@H](C)C1", "IC50": 17.5}
{"smiles": "C[C@@H]1C[C@H](C)C[C@H](C)[C@@H](O)CC(=O)O[C@@H]([C@@H]2CCC[C@H]2C(=O)O)C/C=C/C=C(/C#N)[C@H](O)[C@@H](C)C1", "IC50": 2.19}
{"tested_on": "MCF7", "assay": "Cytotoxicity against human MCF7 cells by CCK8 assay", "assay_type": "functional, cell-based", "settings": "not given", "units": {"IC50": "µM"}}
{"smiles": "CC(=O)NC/C1=C/C=C/C[C@H]([C@@H]2CCC[C@H]2C(=O)O)OC(=O)C[C@H](O)[C@@H](C)C[C@@H](C)C[C@@H](C)C[C@H](C)[C@@H]1O", "IC50": "> 50"}
{"smiles": "C[C@@H]1C[C@H](C)C[C@H](C)[C@@H](O)CC(=O)O[C@@H]([C@@H]2CCC[C@H]2C(=O)O)C/C=C\\C=C(/C#N)[C@@H](O)[C@@H](C)C1", "IC50": 0.12}
{"smiles": "C[C@@H]1C[C@H](C)C[C@H](C)[C@@H](O)CC(=O)O[C@@H]([C@@H]2CCC[C@H]2C(=O)O)C/C=C/C=C(/C#N)[C@@H](O)[C@@H](C)C1", "IC50": 1.21}
{"smiles": "C[C@@H]1C[C@H](C)C[C@H](C)[C@@H](O)CC(=O)O[C@@H]([C@@H]2CCC[C@H]2C(=O)O)C/C=C\\C=C(/C#N)[C@H](O)[C@@H](C)C1", "IC50": 1.15}
{"smiles": "C[C@@H]1C[C@H](C)C[C@H](C)[C@@H](O)CC(=O)O[C@@H]([C@@H]2CCC[C@H]2C(=O)O)C/C=C/C=C(/C#N)[C@H](O)[C@@H](C)C1", "IC50": 0.12}
{"tested_on": "L02", "assay": "Cytotoxicity against human L02 cells by CCK8 assay", "assay_type": "cell-based", "settings": "not given", "units": {"IC50": "µM"}}
{"smiles": "CC(=O)NC/C1=C/C=C/C[C@H]([C@@H]2CCC[C@H]2C(=O)O)OC(=O)C[C@H](O)[C@@H](C)C[C@@H](C)C[C@@H](C)C[C@H](C)[C@@H]1O", "IC50": "> 50"}
{"smiles": "COc1cccc2c1C(=O)c1c(O)c3c(c(O)c1C2=O)C[C@@](O)(C(=O)CO)C[C@@H]3O[C@H]1C[C@H](N)[C@H](O)[C@H](C)O1", "note": "[DOXORUBICIN]", "IC50": 13.2}
{"smiles": "C[C@@H]1C[C@H](C)C[C@H](C)[C@@H](O)CC(=O)O[C@@H]([C@@H]2CCC[C@H]2C(=O)O)C/C=C\\C=C(/C#N)[C@@H](O)[C@@H](C)C1", "IC50": 7.26}
{"smiles": "C[C@@H]1C[C@H](C)C[C@H](C)[C@@H](O)CC(=O)O[C@@H]([C@@H]2CCC[C@H]2C(=O)O)C/C=C/C=C(/C#N)[C@@H](O)[C@@H](C)C1", "IC50": 8.73}
{"smiles": "C[C@@H]1C[C@H](C)C[C@H](C)[C@@H](O)CC(=O)O[C@@H]([C@@H]2CCC[C@H]2C(=O)O)C/C=C\\C=C(/C#N)[C@H](O)[C@@H](C)C1", "IC50": 22.8}
{"smiles": "C[C@@H]1C[C@H](C)C[C@H](C)[C@@H](O)CC(=O)O[C@@H]([C@@H]2CCC[C@H]2C(=O)O)C/C=C/C=C(/C#N)[C@H](O)[C@@H](C)C1", "IC50": 0.98}
{"tested_on": "not listed separately", "assay": "Cytotoxicity against HUVEC12 cells by CCK8 assay", "assay_type": "cell-based", "settings": "Homo sapiens", "units": {"IC50": "µM"}}
{"smiles": "CC(=O)NC/C1=C/C=C/C[C@H]([C@@H]2CCC[C@H]2C(=O)O)OC(=O)C[C@H](O)[C@@H](C)C[C@@H](C)C[C@@H](C)C[C@H](C)[C@@H]1O", "IC50": "> 50"}
{"smiles": "COc1cccc2c1C(=O)c1c(O)c3c(c(O)c1C2=O)C[C@@](O)(C(=O)CO)C[C@@H]3O[C@H]1C[C@H](N)[C@H](O)[C@H](C)O1", "note": "[DOXORUBICIN]", "IC50": 34.2}
{"smiles": "C[C@@H]1C[C@H](C)C[C@H](C)[C@@H](O)CC(=O)O[C@@H]([C@@H]2CCC[C@H]2C(=O)O)C/C=C\\C=C(/C#N)[C@@H](O)[C@@H](C)C1", "IC50": 6.13}
{"smiles": "C[C@@H]1C[C@H](C)C[C@H](C)[C@@H](O)CC(=O)O[C@@H]([C@@H]2CCC[C@H]2C(=O)O)C/C=C/C=C(/C#N)[C@@H](O)[C@@H](C)C1", "IC50": 12}
{"smiles": "C[C@@H]1C[C@H](C)C[C@H](C)[C@@H](O)CC(=O)O[C@@H]([C@@H]2CCC[C@H]2C(=O)O)C/C=C\\C=C(/C#N)[C@H](O)[C@@H](C)C1", "IC50": 14.3}
{"smiles": "C[C@@H]1C[C@H](C)C[C@H](C)[C@@H](O)CC(=O)O[C@@H]([C@@H]2CCC[C@H]2C(=O)O)C/C=C/C=C(/C#N)[C@H](O)[C@@H](C)C1", "IC50": 1.44}
{"tested_on": "HeLa", "assay": "Inhibition of serum-induced cell migration in human HeLa cells at 0.5 to 2 times IC50 measured up to 17 hrs by wound healing assay", "assay_type": "functional, cell-based", "settings": "not given"}
{"smiles": "CC(=O)NC/C1=C/C=C/C[C@H]([C@@H]2CCC[C@H]2C(=O)O)OC(=O)C[C@H](O)[C@@H](C)C[C@@H](C)C[C@@H](C)C[C@H](C)[C@@H]1O", "inhibition": "inactive"}
{"smiles": "C[C@@H]1C[C@H](C)C[C@H](C)[C@@H](O)CC(=O)O[C@@H]([C@@H]2CCC[C@H]2C(=O)O)C/C=C\\C=C(/C#N)[C@@H](O)[C@@H](C)C1", "inhibition": "Active"}
{"tested_on": "A549", "assay": "Inhibition of serum-induced cell migration in human A549 cells at 0.5 to 2 times IC50 measured up to 46 hrs by wound healing assay", "assay_type": "functional, cell-based", "settings": "not given"}
{"smiles": "CC(=O)NC/C1=C/C=C/C[C@H]([C@@H]2CCC[C@H]2C(=O)O)OC(=O)C[C@H](O)[C@@H](C)C[C@@H](C)C[C@@H](C)C[C@H](C)[C@@H]1O", "inhibition": "inactive"}
{"smiles": "C[C@@H]1C[C@H](C)C[C@H](C)[C@@H](O)CC(=O)O[C@@H]([C@@H]2CCC[C@H]2C(=O)O)C/C=C\\C=C(/C#N)[C@@H](O)[C@@H](C)C1", "inhibition": "Active"}
{"tested_on": "not listed separately", "assay": "Inhibition of serum-induced cell migration in HUVEC12 cells at 0.5 to 2 times IC50 measured up to 17 hrs by wound healing assay", "assay_type": "cell-based", "settings": "human"}
{"smiles": "C[C@@H]1C[C@H](C)C[C@H](C)[C@@H](O)CC(=O)O[C@@H]([C@@H]2CCC[C@H]2C(=O)O)C/C=C\\C=C(/C#N)[C@@H](O)[C@@H](C)C1", "Activity": "Non-Toxic"}
